According to PMC2929395 (Chemistry & biology, 2010):
Residue numbers refer to the chain shown, from its start. Entries after “also recorded” stand apart in the source; their conditions may differ.

What was measured:
S. aureus PanK (SaPanK) = S. aureus PanK (SaPanK) (Staphylococcus aureus, UniProt Q2FWC7); assay: SaPanK radiochemical assay; format: biochemical; details: radioactive assay, 10 ng SaPanK
PanK3 [1] = target: T1, PanK3 (Homo sapiens, UniProt Q9H999); assay: PanK3 radiochemical; format: biochemical
T1 sequence (Q9H999 whole entry): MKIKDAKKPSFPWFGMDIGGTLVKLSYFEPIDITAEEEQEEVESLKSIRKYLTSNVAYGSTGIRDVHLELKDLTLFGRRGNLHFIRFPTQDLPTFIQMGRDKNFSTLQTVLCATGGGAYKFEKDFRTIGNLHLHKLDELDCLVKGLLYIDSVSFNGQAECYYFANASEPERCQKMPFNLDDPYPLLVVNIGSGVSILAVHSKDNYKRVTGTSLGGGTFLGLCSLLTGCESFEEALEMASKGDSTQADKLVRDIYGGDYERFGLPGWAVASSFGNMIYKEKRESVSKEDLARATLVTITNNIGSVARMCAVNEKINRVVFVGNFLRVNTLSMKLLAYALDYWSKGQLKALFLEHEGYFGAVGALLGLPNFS

HepG2/C3A cells = assay: CoA biosynthesis, [3H]pantothenate incorporation into CoA in HepG2/C3A cells; format: cell-based, human; details: 24 h labeling, relative to DMSO control
PanK2 = target: T2, PanK2 (Homo sapiens, UniProt Q9BZ23); assay: Isoform selectivity, purified PanK2; format: biochemical; details: compared to PanK3
T2 sequence (Q9BZ23 141-570 limits assumed): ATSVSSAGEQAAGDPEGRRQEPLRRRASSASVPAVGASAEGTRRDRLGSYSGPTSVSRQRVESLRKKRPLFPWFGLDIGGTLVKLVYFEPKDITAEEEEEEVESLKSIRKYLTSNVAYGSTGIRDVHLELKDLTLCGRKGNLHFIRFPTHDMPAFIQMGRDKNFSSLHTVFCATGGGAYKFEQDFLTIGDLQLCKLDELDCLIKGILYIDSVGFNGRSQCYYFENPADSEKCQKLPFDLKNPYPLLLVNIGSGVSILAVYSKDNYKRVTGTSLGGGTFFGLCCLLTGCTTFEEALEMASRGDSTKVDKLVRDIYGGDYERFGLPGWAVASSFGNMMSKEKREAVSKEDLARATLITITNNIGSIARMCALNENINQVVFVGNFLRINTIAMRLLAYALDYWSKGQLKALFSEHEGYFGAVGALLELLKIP

PanK3 [2] = target: T1, PanK3; assay: PanK3 high-throughput screen, two-step luminescence; format: biochemical
PanK3(S195V) = target: T3, PanK3(S195V) (Homo sapiens, UniProt Q9H999, S195V); assay: PanK3; format: biochemical; details: radioactive assay, 800 ng PanK3(S195V)
T3 sequence (Q9H999 1-370 S195V): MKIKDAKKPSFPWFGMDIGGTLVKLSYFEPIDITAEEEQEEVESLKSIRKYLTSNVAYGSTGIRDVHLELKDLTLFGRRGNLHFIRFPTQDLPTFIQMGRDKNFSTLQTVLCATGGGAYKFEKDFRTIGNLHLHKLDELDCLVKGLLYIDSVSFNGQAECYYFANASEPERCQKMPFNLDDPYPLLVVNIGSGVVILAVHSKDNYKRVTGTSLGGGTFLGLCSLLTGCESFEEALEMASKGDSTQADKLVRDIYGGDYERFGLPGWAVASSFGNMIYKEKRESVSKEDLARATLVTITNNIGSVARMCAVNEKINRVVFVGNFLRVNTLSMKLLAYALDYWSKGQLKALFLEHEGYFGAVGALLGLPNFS

PanK1β = target: T4, PanK1β (Homo sapiens, UniProt Q8TE04); assay: Isoform selectivity, purified PanK1β; format: biochemical; details: compared to PanK3
T4 sequence (Q8TE04 1-373 isoform Q8TE04-2): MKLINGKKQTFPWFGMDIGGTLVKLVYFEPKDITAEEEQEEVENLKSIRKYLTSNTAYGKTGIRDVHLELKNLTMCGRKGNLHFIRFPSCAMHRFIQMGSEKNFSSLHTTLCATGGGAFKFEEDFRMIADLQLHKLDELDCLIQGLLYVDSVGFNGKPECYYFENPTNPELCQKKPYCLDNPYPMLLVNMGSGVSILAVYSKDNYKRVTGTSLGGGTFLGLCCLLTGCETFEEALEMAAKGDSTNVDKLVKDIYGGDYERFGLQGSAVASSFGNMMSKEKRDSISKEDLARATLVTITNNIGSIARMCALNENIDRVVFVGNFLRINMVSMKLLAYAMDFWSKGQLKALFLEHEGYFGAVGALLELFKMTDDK

PanK3(A269F) = target: T5, PanK3(A269F) (Homo sapiens, UniProt Q9H999, A269F); assay: TNP-ATP binding to PanK3
T5 sequence (Q9H999 1-370 A269F): T3 sequence (Q9H999 1-370 S195V) with V195S, A269F

PanK3(A267F) = target: T6, PanK3(A267F) (Homo sapiens, UniProt Q9H999, A267F); assay: TNP-ATP binding to PanK3
T6 sequence (Q9H999 1-370 A267F): T3 sequence (Q9H999 1-370 S195V) with V195S, A267F

PanK3(R207A) = target: T7, PanK3(R207A) (Homo sapiens, UniProt Q9H999, R207A); assay: TNP-ATP binding to PanK3
T7 sequence (Q9H999 1-370 R207A): T3 sequence (Q9H999 1-370 S195V) with V195S, R207A

PanK3 [3] = target: T1, PanK3; assay: TNP-ATP fluorescent ATP analog binding to PanK3

Chain of S. aureus PanK (SaPanK) (Q2FWC7 whole entry): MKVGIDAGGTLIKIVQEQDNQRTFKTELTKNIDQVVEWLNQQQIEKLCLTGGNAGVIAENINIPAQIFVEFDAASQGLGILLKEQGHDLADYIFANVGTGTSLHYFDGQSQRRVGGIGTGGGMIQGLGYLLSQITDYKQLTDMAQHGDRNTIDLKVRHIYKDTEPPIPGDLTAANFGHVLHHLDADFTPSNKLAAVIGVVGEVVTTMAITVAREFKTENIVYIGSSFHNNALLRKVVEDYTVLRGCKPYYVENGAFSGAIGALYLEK

SMILES	Inhibition of SaPanK (S. aureus PanK (SaPanK))	IC50 (PanK3 [1])	Kinetic mechanism of PanK3 inhibition with respect to ATP (PanK3 [1])	Effect on CoA biosynthesis (pantothenate incorporation into CoA) (HepG2/C3A cells)	Effect on PanK2 activity (PanK2)	IC50 (PanK3 [2])	Inhibition of PanK3(S195V) (PanK3(S195V))	Effect on PanK1β activity (PanK1β)	Kd (PanK3(A269F))	Kd (PanK3(A267F))	Kd (PanK3(R207A))	Kd (PanK3 [3])	EC50 (PanK3 [1])	% Activation RA (PanK3 [1]; % of maximal activation of PanK3 with respect to the DMSO control, radioactive assay)	Reversal of / competition with acetyl-CoA inhibition of PanK3 (PanK3 [1]; in the presence of acetyl-CoA, data not shown)	EC50 (PanK3 [2])
COc1ccc(Cl)cc1C(=O)NCCc1ccc(S(=O)(=O)NC(=O)NC2CCCCC2)cc1 [Glyburide]	refractory; also recorded: not inhibited	8.5 µM	uncompetitive	inhibited cellular CoA biosynthesis to a lesser extent than MCC-555	less sensitive to glyburide than PanK3	6.8 µM	refractory to inhibition	activated rather than inhibited	–	–	–	–	–	–	–	–
Nc1ncnc2c1ncn2[C@@H]1O[C@H](COP(=O)(O)OP(=O)(O)OP(=O)(O)O)[C@H]2OC3(O[C@H]21)C([N+](=O)[O-])=CC(=[N+]([O-])[O-])C=C3[N+](=O)[O-] (stereo partly shown) [TNP-ATP]	–	–	–	–	–	–	–	–	5.4 ± 0.8 µM	3.1 ± 0.8 µM	3 ± 0.3 µM	3.6 ± 0.9 µM	–	–	–	–
O=C1NC(=O)C(Cc2ccc3cc(OCc4ccccc4F)ccc3c2)S1 (stereo not shown) [MCC-555]	refractory; also recorded: not inhibited	–	uncompetitive	inhibited pantothenate incorporation into CoA	inhibited	–	refractory to inhibition	inhibited	–	–	–	–	–	–	–	–
CC/C(=C(\c1ccccc1)c1ccc(OCCN(C)C)cc1)c1ccccc1 [Tamoxifen]	–	–	–	most potent activator of CoA biosynthesis in cells	not affected	–	–	inhibited	–	–	–	–	4 µM	140%	reversed the inhibition of PanK3 by acetyl-CoA	3.4 µM
